Values quoted from earlier work in patent US20110274652A1, “Methods for Treating Hepatitis C Virus Infection” (VERTEX PHARMACEUTICALS INCORPORATED, priority 2008, published 2011).

System: Hepatitis C virus
Conditions: interferon alfa monotherapy, chronic hepatitis C

Substance: interferon alfa
- cases with long term remission: ~25%
